Measured values taken from US10301320B2, “Compositions and methods of modulating 15-PGDH activity” (CASE WESTERN RESERVE UNIVERSITY, priority 2012, dated 2019).
Where two headings read alike, the source gives them in different places.

What was measured:
[1] = molecular target: recombinant 15-PGDH protein (Homo sapiens (Human), UniProt P15428); assay: Inhibition of enzymatic activity of recombinant 15-PGDH in vitro; type: biochemical; conditions: read-out: Enzyme inhibition % ([…]), Table 18, […] compound;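 note: activity of recombinant human 15-PGDH assayed in vitro using PGE2 as the substrate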
[2] = tested on: V9m reporter cell line expressing a 15-PGDH luciferase fusion construct; assay: 15-PGDH-luciferase fusion gene reporter induction, V9m cell line; type: cell-based; conditions: for percent reporter induction over basal at […]: read-out: V9M-SC3 Reporter activity % ([…]), Table 18, read-out: V9M-SC3 Reporter activity % (7.5 μM)
From the text: (§1) These cell lines are Vaco-9m (V9m), LS174T, Vaco503 (V503). […] Value of 1.0 on the Y-axis is the basal level of reporter activity in cells treated with drug free DMSO vehicle.
(§2) This Example provides data on a group of structural analogues of SW033291. Data provided includes level of induction of a 15-PGDH-luciferase fusion gene reporter, recorded as % increased luciferase activity over basal level, in three colon cancer cell lines, V9m, V503, and LS174T, engineered to contain the reporter, and treated with either 2.5 uM or 7.5 uM compound (i.e., Values are recorded on a scale where 100 indicates of doubling of luciferase activity over baseline level).
(§3) FIGS. 27(A-C) show graphs that show the level of compound's activity in inducing the 15-PGDH-luciferase fusion reporter in three different test cell line backgrounds, V9m, LS174T, and V503. Each compound was tested at two concentrations, 2.5 uM, and 7.5 uM. Y-axis is luciferase activity.
(§4) Data provided include level of induction of a 15-PGDH-luciferase fusion gene reporter, recorded as % induction of luciferase activity over basal level, in three colon cancer cell lines, V9m, V503, and LS174T, engineered to contain the reporter, and treated with either 2.5 uM or 7.5 uM compound. […] Additionally, for selected compounds is recorded the decrease in PGE2 levels in the media of compound treated A549 cells that have been stimulated with IL-1 beta. Additionally recorded for selected compounds is the effect on A549 cell viability as measured by a CellTiter-Glo assay, and the effect of compounds on A549 cell colony formation.

[3] = tested on: LS174T reporter cell line expressing a 15-PGDH luciferase fusion construct; assay: 15-PGDH-luciferase fusion gene reporter induction, LS174T cell line; type: cell-based; conditions: Homo sapiens
From the text: as §1, §2, §3, §4

[4] = tested on: Vaco503 reporter cell line expressing a 15-PGDH luciferase fusion construct; assay: 15-PGDH-luciferase fusion gene reporter induction, Vaco503 (V503) cell line; type: cell-based
From the text: as §1, §2, §3, §4

[5] = read-out: Enzyme inhibition % (2.5 μM)
[6] = read-out: Enzyme inhibition % (7.5 μM)
[7] = read-out: V9M reporter activity ([…]), […], % increased luciferase activity over basal level, 100 = doubling, read-out: V9M reporter activity (2.5 uM)
[8] = read-out: V503 reporter activity ([…]), […], % increased luciferase activity over basal level, read-out: V503 reporter activity (2.5 uM)
[9] = read-out: V503 reporter activity ([…]), […], % increased luciferase activity over basal level, read-out: V503 reporter activity (7.5 uM)
[10] = read-out: LS174T reporter activity ([…]), […], % increased luciferase activity over basal level, read-out: LS174T reporter activity (2.5 uM)
[11] = read-out: LS174T reporter activity ([…]), […], % increased luciferase activity over basal level, read-out: LS174T reporter activity (7.5 uM)
[12] = read-out: V9M reporter activity ([…]), […], % increased luciferase activity over basal level, read-out: V9M reporter activity (7.5 uM)
[13] = read-out: V503 reporter activity ([…]), Table 17, […], read-out: V503 reporter activity (2.5 μM)
[14] = read-out: V503 reporter activity ([…]), Table 17, […], read-out: V503 reporter activity (7.5 μM)
[15] = read-out: 1S174T reporter activity ([…]), Table 17, […], read-out: 1S174T reporter activity (7.5 μM)
[16] = read-out: LS174T reporter activity ([…]), Table 17, […], read-out: LS174T reporter activity (2.5 μM)
[17] = read-out: V9M reporter activity ([…]), Table 17, […], % induction over basal level, read-out: V9M reporter activity (2.5 μM)
[18] = read-out: V9M reporter activity ([…]), Table 17, […], read-out: V9M reporter activity (7.5 μM)

Sequence of recombinant 15-PGDH protein (P15428 whole entry, the tested form may be a part): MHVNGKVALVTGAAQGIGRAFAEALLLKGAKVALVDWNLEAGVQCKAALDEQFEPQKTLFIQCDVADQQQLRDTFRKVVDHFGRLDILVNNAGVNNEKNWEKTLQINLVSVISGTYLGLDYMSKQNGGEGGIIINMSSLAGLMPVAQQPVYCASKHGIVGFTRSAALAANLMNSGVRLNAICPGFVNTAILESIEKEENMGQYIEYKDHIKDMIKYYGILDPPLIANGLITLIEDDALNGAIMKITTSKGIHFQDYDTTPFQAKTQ

| Compound | inhibition at […] [1, 5] | inhibition at […] [1, 6] | percent reporter induction over basal at […] ([2]; […]) | further results |
| --- | --- | --- | --- | --- |
| COc1ccc(N(CC(=O)Nc2cccnc2)S(=O)(=O)c2ccccc2)c(OC)c1 [310875-38-8] | 23.5% | 33.4% | -16.4% | – |
| COc1ccc(OC)c(N(CC(=O)Nc2cccc(Cl)c2)S(=O)(=O)c2ccccc2)c1 [311315-25-0] | 18.7% | 34.7% | – | activation at […] ([3]; read-out: Ls174T-SC1 reporter activity, % ([…]), Table 18, […], read-out: Ls174T-SC1 reporter activity, % (2.5μM)): 62.6%; activation at […] ([3]; read-out: Ls174T-SC1 reporter activity, % ([…]), Table 18, […], read-out: Ls174T-SC1 reporter activity, % (7.5 μM)): 75.8% |
| COc1ccc(OC)c(N(CC(=O)Nc2ccc(C)cc2)S(=O)(=O)c2ccccc2)c1 [311333-86-5] | 34% | – | 117% | – |
| COc1ccc(Cl)cc1N(CC(=O)Nc1cccnc1)S(=O)(=O)c1ccccc1 [328012-52-8] | 67.4% | 82.1% | 0.51% | – |
| O=C(CN(c1ccccc1)S(=O)(=O)c1ccccc1)Nc1cccnc1 [331727-07-2] | 9.65% | 17.5% | 120% | – |
| COc1ccc(OC)c(N(CC(=O)NC2CCCCC2)S(=O)(=O)c2ccccc2)c1 [333446-93-8] | -5.31% | 5.85% | 44% | – |
| COC(=O)c1ccccc1NC(=O)CN(c1cc(OC)ccc1OC)S(=O)(=O)c1ccccc1 [333449-58-4] | 9.72% | -3.12% | 71.2% | – |
| COc1cccc(N(CC(=O)Nc2cccnc2)S(=O)(=O)c2ccccc2)c1 [335392-39-7] | 11% | 5.37% | 7.18% | – |
| COc1ccc(OC)c(N(CC(=O)Nc2ccc(Cl)cc2)S(=O)(=O)c2ccccc2)c1 [339589-53-6] | 35.5% | 37.4% | 4.25% | – |
| Nc1c([S+]([O-])Cc2ccccc2)sc2nc(-c3cccs3)cc(-c3ccccc3)c12 (stereo not shown) [SW033292] | – | – | – | activation at […] [2, 7]: 1.51% |
| Nc1c(C(=O)O)sc2nc(-c3cccs3)cc(-c3ccccc3)c12 [SW206979, 3-Amino-4-phenyl-6-(thiophen-2-yl)thieno[2,3-b]pyridine-2-carboxylic acid] | – | – | – | activation at […] [4, 8]: 21.7%; activation at […] [4, 9]: 42.9%; activation at […] [3, 10]: 34.3%; activation at […] [3, 11]: 32.8%; activation at […] [2, 7]: -12.6%; activation at […] [2, 12]: -20.6% |
| CCCC[S+]([O-])c1ncccc1[N+](=O)[O-] (stereo not shown) [SW208069, 2-(butylsulfinyl)-3-nitropyridine] | – | – | – | activation at […] [4, 8]: 19.5%; activation at […] [4, 9]: 15.1%; activation at […] [3, 10]: 19.5%; activation at […] [3, 11]: 15.1%; activation at […] [2, 7]: -14.5%; activation at […] [2, 12]: 0.23% |
| COc1ccc(N(CC(=O)Nc2ccccc2Br)S(=O)(=O)c2ccc(NC(C)=O)cc2)cc1 [compound 771064] | – | – | – | activation at […] [4, 13]: -13.8%; activation at […] [4, 14]: -24.8%; activation at […] [3, 15]: -29.6%; activation at […] [3, 16]: -2.11%; activation at […] [2, 17]: 43.3%; activation at […] [2, 18]: -19.2% |
| COc1ccc(S(=O)(=O)N(CC(=O)Nc2ccccc2Br)c2cc(Cl)ccc2OC)cc1OC [compound 771081] | – | – | – | activation at […] [4, 13]: 31.9%; activation at […] [4, 14]: 51.7%; activation at […] [3, 15]: 15.4%; activation at […] [3, 16]: 5.74%; activation at […] [2, 17]: -14.2%; activation at […] [2, 18]: 7.58% |
| COc1ccc(S(=O)(=O)N(CC(=O)Nc2cccc(Br)c2)c2cc(Cl)ccc2OC)cc1OC [compound 771130] | – | – | – | activation at […] [4, 13]: -10.2%; activation at […] [4, 14]: -3.48%; activation at […] [3, 15]: -0.48%; activation at […] [3, 16]: 8.66%; activation at […] [2, 17]: 8.67%; activation at […] [2, 18]: 5.84% |
| COc1ccc(S(=O)(=O)N(CC(=O)Nc2ccc(Br)cc2)c2cc(Cl)ccc2OC)cc1OC [compound 771432] | – | – | – | activation at […] [4, 13]: 33.7%; activation at […] [4, 14]: 42.8%; activation at […] [3, 15]: 4.24%; activation at […] [3, 16]: 3.86%; activation at […] [2, 17]: -7.11%; activation at […] [2, 18]: -3.13% |
| COc1ccc(S(=O)(=O)N(CC(=O)Nc2cccc(N(C)S(C)(=O)=O)c2)c2cc(Cl)ccc2OC)cc1OC [compound 924787] | – | – | – | activation at […] [4, 13]: 21.9%; activation at […] [4, 14]: 48%; activation at […] [3, 15]: 13.1%; activation at […] [3, 16]: 4.32%; activation at […] [2, 17]: -1.45%; activation at […] [2, 18]: 18.1% |
| COc1ccc(N(CC(=O)Nc2ccccc2Br)S(=O)(=O)c2ccccc2[N+](=O)[O-])c(OC)c1 [compound 1002065] | – | – | – | activation at […] [4, 13]: 38.1%; activation at […] [4, 14]: 52.5%; activation at […] [3, 15]: 15.2%; activation at […] [3, 16]: 9.9%; activation at […] [2, 17]: 7.38%; activation at […] [2, 18]: 18.6% |

The next lines start with results.

| inhibition at […] [1, 5] | inhibition at […] [1, 6] | Compound | percent reporter induction over basal at […] ([2]; […]) | further results |
| --- | --- | --- | --- | --- |
| 19.1% | 22% | COc1ccc(OC)c(N(CC(=O)Nc2ccc(Cl)c(Cl)c2)S(=O)(=O)c2ccccc2)c1 [339589-55-8] | 8% | – |
| 8.95% | 34.8% | COc1ccccc1N(CC(=O)Nc1cccnc1)S(=O)(=O)c1ccccc1 [367929-80-4] | -19% | – |
| 10.8% | 12.1% | COc1ccc(N(CC(=O)Nc2cccnc2)S(=O)(=O)c2ccccc2)cc1 [418783-65-0] | 67.2% | – |
| 39.8% | 56.4% | COc1ccc(OC)c(N(CC(=O)Nc2ccc(F)cc2)S(=O)(=O)c2ccccc2)c1 [426231-26-7] | 2.5% | – |
| 3.76% | 8.67% | CCOc1ccc(N(CC(=O)Nc2cccnc2)S(=O)(=O)c2ccccc2)cc1 [428473-22-7] | 2.05% | – |
| 9.28% | 3.35% | CCc1ccc(N(CC(=O)Nc2cccnc2)S(=O)(=O)c2ccccc2)cc1 [461439-84-9] | -41.8% | – |
| 67.4% | 84.6% | COc1ccc(OC)c(N(CC(=O)Nc2cccnc2)S(=O)(=O)c2ccc(C)cc2)c1 [505072-23-1] | 71.5% | – |
| -20.6% | 27.9% | COc1ccc(OC)c(N(CC(=O)Nc2cccnc2)S(C)(=O)=O)c1 [527699-66-7] | -37.2% | – |
| -8.22% | 10.2% | CCc1ccccc1N(CC(=O)Nc1cccnc1)S(=O)(=O)c1ccccc1 [528580-69-0] | -0.5% | – |
| 21.7% | 9.25% | COc1ccc(OC)c(N(CC(=O)Nc2ccccc2C(N)=O)S(=O)(=O)c2ccccc2)c1 [530107-57-4] | 116% | – |
| 31.8% | 50.7% | COc1ccc(OC)c(N(CC(=O)Nc2cccnc2)S(=O)(=O)c2ccc(OC)c(OC)c2)c1 [680599-58-0] | -22.5% | – |
| 10.1% | 13.1% | O=C(CN(c1ccc2c(c1)OCCO2)S(=O)(=O)c1ccccc1)Nc1cccnc1 [701217-00-7] | 79.5% | – |
| 16.4% | 49.2% | O=C(CN(c1cc(Cl)ccc1Cl)S(=O)(=O)c1ccccc1)Nc1cccnc1 [833428-03-8] | 17.4% | – |
